Drawing on US10954216B2, “BMP-signal-inhibiting compound” (RIKEN, priority 2016, dated 2021), this text covers IC50 and inhibition for 28 molecules.

For assay [1], the target named is human ALK2 (Homo sapiens (Human), UniProt Q04771). Briefly: ALK2 enzyme inhibitory effect (33P-ATP kinase assay, Reaction Biology). It counts as biochemical. As to conditions: ALK2, 10 μM ATP, 20 μM casein. From the text: (§1) ALK Enzyme Inhibitory Effect
(§2) Evaluation conditions were described in the following web pages. http://www.reactionbiology.corrilwebapps/site/Kinase_Assay_Protocol.aspx http://www.reactionbiology.corrilwebapps/site/KinaseDetail.aspx?page=Kinases&id=1

Assay [2] has as its system BMP signal in MDA-231-D-BREFluc/Rluc cells. The assay is described as follows: BMP signal inhibitory effect (AlphaScreen SureFire SMAD1 p-Ser463/465, BMP-6 stimulation). It counts as cell-based. In a few lines:
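MDA-231-D-BREFluc/Rluc cells were pretreated with compound for 2 h at 37° C, then stimulated with BMP-6 for 30 min. SMAD1 p-Ser463/465 in lysates was measured by AlphaScreen SureFire.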

Assay [3] addresses human ALK3 (Homo sapiens (Human), UniProt P36894). The assay is described as follows: ALK3 enzyme inhibitory effect (33P-ATP kinase assay, Reaction Biology). It counts as biochemical. As to conditions: for inhibition at 0.3 µM: read-out: Inhibition rate at 300 nM.
Source text: as §1, §2

The target in assay [4] is human ALK6 (Homo sapiens (Human), UniProt O00238). Briefly: ALK6 enzyme inhibitory effect (33P-ATP kinase assay, Reaction Biology). It counts as biochemical. The note with it: for inhibition at 0.37 µM: ALK6, test compound 370 nM (asterisk footnote), read-out: inhibition rate at 370 nM; for inhibition at 0.3 µM: read-out: Inhibition rate at 300 nM.
Sequence of human ALK6 (O00238 14-502): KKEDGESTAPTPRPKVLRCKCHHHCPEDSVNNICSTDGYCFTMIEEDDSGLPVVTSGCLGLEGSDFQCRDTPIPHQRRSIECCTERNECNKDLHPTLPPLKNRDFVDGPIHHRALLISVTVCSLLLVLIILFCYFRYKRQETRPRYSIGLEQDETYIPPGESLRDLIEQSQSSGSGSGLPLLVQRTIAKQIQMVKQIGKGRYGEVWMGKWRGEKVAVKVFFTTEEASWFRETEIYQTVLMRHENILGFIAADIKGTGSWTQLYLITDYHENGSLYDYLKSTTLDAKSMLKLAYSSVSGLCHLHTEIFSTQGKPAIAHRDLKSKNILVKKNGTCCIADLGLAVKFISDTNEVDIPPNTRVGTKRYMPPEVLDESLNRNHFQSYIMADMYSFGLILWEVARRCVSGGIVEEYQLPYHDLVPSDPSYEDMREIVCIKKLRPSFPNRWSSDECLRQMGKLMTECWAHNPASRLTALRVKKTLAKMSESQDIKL
Source text: as §1, §2

The mark [5] stands for this setting: BMP-6 stimulated MDA-231-D-BREFluc/Rluc cells, phospho-SMAD1 AlphaScreen, read-out: IC50.

Like-named read-outs stand apart in the source and are kept apart here.

Sequence of human ALK3 (P36894 24-532): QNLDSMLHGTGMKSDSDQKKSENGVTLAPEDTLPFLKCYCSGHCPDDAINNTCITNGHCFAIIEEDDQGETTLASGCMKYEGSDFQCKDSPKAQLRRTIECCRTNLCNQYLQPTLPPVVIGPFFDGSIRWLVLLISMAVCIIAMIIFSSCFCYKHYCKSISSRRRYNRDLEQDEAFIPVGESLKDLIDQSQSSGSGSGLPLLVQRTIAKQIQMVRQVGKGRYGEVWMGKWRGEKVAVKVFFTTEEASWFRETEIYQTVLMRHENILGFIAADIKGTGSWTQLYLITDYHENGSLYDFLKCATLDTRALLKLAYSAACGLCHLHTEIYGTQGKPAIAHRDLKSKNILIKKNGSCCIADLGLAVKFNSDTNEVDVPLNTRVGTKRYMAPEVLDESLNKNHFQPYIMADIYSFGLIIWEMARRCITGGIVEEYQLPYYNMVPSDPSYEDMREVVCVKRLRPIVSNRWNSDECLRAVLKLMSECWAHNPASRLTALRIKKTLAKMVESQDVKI
Sequence of human ALK2 (Q04771 21-509): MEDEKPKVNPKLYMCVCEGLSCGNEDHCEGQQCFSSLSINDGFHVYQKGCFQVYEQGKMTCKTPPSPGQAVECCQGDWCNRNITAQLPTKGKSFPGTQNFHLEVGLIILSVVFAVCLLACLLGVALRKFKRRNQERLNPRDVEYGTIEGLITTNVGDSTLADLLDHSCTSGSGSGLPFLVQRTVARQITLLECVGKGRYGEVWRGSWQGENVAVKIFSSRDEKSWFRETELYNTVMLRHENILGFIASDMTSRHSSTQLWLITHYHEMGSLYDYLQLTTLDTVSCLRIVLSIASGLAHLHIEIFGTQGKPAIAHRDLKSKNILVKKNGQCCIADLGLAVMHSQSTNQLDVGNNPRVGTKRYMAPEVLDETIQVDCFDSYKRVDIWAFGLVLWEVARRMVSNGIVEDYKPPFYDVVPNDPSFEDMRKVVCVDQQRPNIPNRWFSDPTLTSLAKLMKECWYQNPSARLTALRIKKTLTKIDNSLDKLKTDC

`CCn1cc(-c2ccnc(Nc3ccc(N4CCN(C(C)C)CC4)cc3)n2)c(-c2cccnc2)n1` [Example 16, 4-(1-ethyl-3-(pyridin-3-yl)-1H-pyrazol-4-yl)-N-(4-(4-isopropylpiperazin-1-yl)phenyl)pyrimidin-2-amine]: the IC50 in assay [1] was 0.0066 µM; in assay [2] (setting [5]), 0.0128 µM. As to `CCn1cc(-c2ccnc(Nc3ccc(C(N)=O)cc3)n2)c(-c2cccnc2)n1` [Example 23, 4-((4-(1-Ethyl-3-(pyridin-3-yl)-1H-pyrazol-4-yl)pyrimidin-2-yl)amino)benzamide], the inhibition at 0.3 µM in assay [3] (ALK3, test compound 300 nM) came to 52%. For the same molecule, the IC50 in assay [2] (setting [5]) amounted to 0.0338 µM. Take `c1cncc(-c2n[nH]cc2-c2ccnc(Nc3ccc(OCCN4CCOCC4)cc3)n2)c1` [Example 25, N-(4-(2-morpholinoethoxy)phenyl)-4-(3-(pyridin-3-yl)-1H-pyrazol-4-yl)pyrimidin-2-amine]: the inhibition at 0.37 µM in assay [4] is 47.7%. Also, the IC50 in assay [2] (setting [5]) was 0.0485 µM.

For the molecule `CCn1cc(-c2ccc(Nc3nccc(-c4cn(CC)nc4-c4cccnc4)n3)cc2)cn1` [Example 27, N-(4-(1-ethyl-1H-pyrazol-4-yl)phenyl)-4-(1-ethyl-3-(pyridin-3-yl)-1H-pyrazol-4-yl)pyrimidin-2-amine], the results for the concentration for half-maximal inhibition (IC50) in assay [1] and in assay [2] (setting [5]) were 0.0177 µM and 0.0585 µM, respectively. For the molecule `CCn1cc(-c2ccnc(Nc3ccc(-c4cnn(CC(F)F)c4)cc3)n2)c(-c2cccnc2)n1` [Example 29, N-(4-(1-(2,2-Difluoroethyl)-1H-pyrazol-4-yl)phenyl)-4-(1-ethyl-3-(pyridin-3-yl)-1H-pyrazol-4-yl)pyrimidin-2-amine], the inhibition at 0.3 µM in assay [3] (ALK3, test compound 300 nM) stood at 66.1%; in assay [4] (ALK6, test compound 300 nM), 91.3%. Besides, in assay [2] (setting [5]), the IC50 stood at 0.0294 µM. `CCn1cc(-c2ccnc(Nc3ccc(N4CCN(CC5CC5)CC4)cc3)n2)c(-c2cccnc2)n1` [Example 33, N-(4-(4-(Cyclopropylmethyl)piperazin-1-yl)phenyl)-4-(1-ethyl-3-(pyridin-3-yl)-1H-pyrazol-4-yl)pyrimidin-2-amine]: the IC50 in assay [1] was 0.0061 µM; in assay [2] (setting [5]) it was 0.0078 µM.

As for `COCCN1CCN(c2ccc(Nc3nccc(-c4cn(CCOC)nc4-c4cccnc4)n3)cc2)CC1` [Example 37, 4-(1-(2-Methoxyethyl)-3-(pyridin-3-yl)-1H-pyrazol-4-yl)-N-(4-(4-(2-methoxyethyl)-piperazin-1-yl)phenyl)pyrimidin-2-amine], the IC50 in assay [1] stood at 0.0104 µM; in assay [2] (setting [5]), 0.0313 µM. In the case of `CCn1cc(-c2ccnc(Nc3cccc(CN4CCOCC4)c3)n2)c(-c2cccnc2)n1` [Example 41, 4-(1-ethyl-3-(pyridin-3-yl)-1H-pyrazol-4-yl)-N-(3-(morpholinomethyl)phenyl)pyrimidin-2-amine], in assay [4] (ALK6, test compound 300 nM), the inhibition at 0.3 µM turned out to be 78%. The IC50 in assay [1] was found to be 0.068 µM; in assay [2] (setting [5]), 0.0119 µM. As for `CCn1cc(-c2ccnc(Nc3ccc(N4CCN(C)CC4)cc3)n2)c(-c2cccnc2)n1` [Example 46, 4-(1-Ethyl-3-(pyridin-3-yl)-1H-pyrazol-4-yl)-N-(4-(4-methylpiperazin-1-yl)phenyl)pyrimidin-2-amine], the figures for the IC50 in assay [1] and in assay [2] (setting [5]) were 0.0255 µM and 0.0188 µM, respectively. On to `CCn1cc(-c2ccnc(Nc3ccc(S(=O)(=O)N(C)C4CCN(C(C)C)CC4)cc3)n2)c(-c2cccnc2)n1` [Example 124], for which, in assay [4] (ALK6, test compound 300 nM), the inhibition at 0.3 µM stood at 87%. Further, the IC50 came out at 0.0615 µM in assay [1] and 0.016 µM in assay [2] (setting [5]).

With `CN1CCN(c2ccc(Nc3nccc(-c4c[nH]nc4-c4cccnc4)n3)cc2)CC1` [Example 127, N-(4-(4-Methylpiperazin-1-yl)phenyl)-4-(3-(pyridin-3-yl)-1H-pyrazol-4-yl)pyrimidin-2-amine], the inhibition at 0.37 µM in assay [3] (ALK3, test compound 370 nM (asterisk footnote), read-out: inhibition rate at 370 nM) was determined as 55.2%; in assay [4], 82.8%. The IC50 in assay [2] (setting [5]) stood at 0.0224 µM.

`O=C(c1ccc(Nc2nccc(-c3cn(Cc4ccccc4)nc3-c3cccnc3)n2)cc1)N1CCNCC1` [Example 138, (4-((4-(1-Benzyl-3-(pyridin-3-yl)-1H-pyrazol-4-yl)pyrimidin-2-yl)amino)phenyl) (piperazin-1-yl)methanone]: in assay [4] (ALK6, test compound 300 nM), the inhibition at 0.3 µM was determined as 83.8%. The half-inhibitory concentration (IC50) in assay [2] (setting [5]) is 0.0224 µM. As for `Fc1ccc(Cn2cc(-c3ccnc(Nc4ccc(N5CCNCC5)cc4)n3)c(-c3cccnc3)n2)cc1` [Example 139, 4-(1-(4-Fluorobenzyl)-3-(pyridin-3-yl)-1H-pyrazol-4-yl)-N-(4-(piperazin-1-yl)phenyl)pyrimidin-2-amine], the inhibition at 0.3 µM in assay [3] (ALK3, test compound 300 nM) was 54.3%; in assay [4] (ALK6, test compound 300 nM), 90.6%. Also, the IC50 in assay [2] (setting [5]) is 0.0162 µM.

Turning to `CCn1cc(-c2ccnc(Nc3ccc(N4CC5CCC(C4)N5)cc3)n2)c(-c2cccnc2)n1` [Example 143, N-(4-(3,8-Diazabicyclo[3.2.1]octan-3-yl)phenyl)-4-(1-ethyl-3-(pyridin-3-yl)-1H-pyrazol-4-yl)pyrimidin-2-amine], the inhibition at 0.3 µM was 57% in assay [3] and 91% in assay [4]. In addition, the IC50 in assay [2] was determined as 0.0092 µM.

As to `CCn1cc(-c2ccnc(Nc3ccc(N4CCNCC4)cc3)n2)c(-c2cncc(F)c2)n1` [Example 148, 4-(1-Ethyl-3-(5-fluoropyridin-3-yl)-1H-pyrazol-4-yl)-N-(4-(piperazin-1-yl)phenyl)pyrimidin-2-amine], the inhibition at 0.3 µM in assay [4] (ALK6, test compound 300 nM) is 79.4%. Moreover, the IC50 was determined as 0.051 µM in assay [1] and 0.0148 µM in assay [2] (setting [5]). Take `N#Cc1cccc(Cn2cc(-c3ccnc(Nc4ccc(N5CCNCC5)cc4)n3)c(-c3cccnc3)n2)c1` [Example 156, 3-((4-(2-((4-(Piperazin-1-yl)phenyl)amino)pyrimidin-4-yl)-3-(pyridin-3-yl)-1H-pyrazol-1-yl)methyl)benzonitrile]: the values for the IC50 in assay [1] and in assay [2] (setting [5]) were 0.0061 µM and 0.0243 µM, respectively. In the case of `CCn1cc(-c2ccnc(Nc3ccc(N4CCC[C@H](N)C4)cc3)n2)c(-c2cccnc2)n1` [Example 160, (S)-N-(4-(3-Aminopiperidin-1-yl)phenyl)-4-(1-ethyl-3-(pyridin-3-yl)-1H-pyrazol-4-yl)pyrimidin-2-amine], the 50% inhibitory concentration (IC50) in assay [2] (setting [5]) came out at 0.0158 µM. Same read-out and setting: then `CCn1cc(-c2ccnc(Nc3ccc(N4CCC[C@@H](N)C4)cc3)n2)c(-c2cccnc2)n1` [Example 161, (R)-N-(4-(3-Aminopiperidin-1-yl)phenyl)-4-(1-ethyl-3-(pyridin-3-yl)-1H-pyrazol-4-yl)pyrimidin-2-amine], with 0.0126 µM.

Consider `CCn1cc(-c2ccnc(Nc3ccc(OC4CCNCC4F)cc3)n2)c(-c2cccnc2)n1` (centres unmarked) [Example 164, 4-(1-Ethyl-3-(pyridin-3-yl)-1H-pyrazol-4-yl)-N-(4-((3-fluoropiperidin-4-yl)oxy)phenyl) pyrimidin-2-amine], for which, in assay [2] (setting [5]), the IC50 is 0.0114 µM. For the molecule `CCn1cc(-c2ccnc(Nc3cccc(OC4CCNCC4)c3)n2)c(-c2cccnc2)n1` [Example 165, 4-(1-Ethyl-3-(pyridin-3-yl)-1H-pyrazol-4-yl)-N-(3-(piperidin-4-yloxy)phenyl) pyrimidin-2-amine], the IC50 is 0.057 µM in assay [1] and 0.0226 µM in assay [2] (setting [5]). As to `CCn1cc(-c2nc(Nc3ccc(N4CCNCC4)cc3)ncc2F)c(-c2cccnc2)n1` [Example 166, 4-(1-Ethyl-3-(pyridin-3-yl)-1H-pyrazol-4-yl)-5-fluoro-N-(4-(piperazin-1-yl)phenyl)pyrimidin-2-amine], the IC50 in assay [2] (setting [5]) came out at 0.04 µM.

For the molecule `CCn1cc(-c2ccnc(Nc3ccc4c(c3)NCCC4)n2)c(-c2cccnc2)n1` [Example 170, N-(4-(1-Ethyl-3-(pyridin-3-yl)-1H-pyrazol-4-yl)pyrimidin-2-yl)-1,2,3,4-tetrahydroquinolin-7-amine], the IC50 in assay [2] (setting [5]) worked out at 0.0227 µM.

For the molecule `CCn1cc(-c2ccnc(Nc3ccc4c(c3)CCN(CC(=O)O)C4)n2)c(-c2cccnc2)n1` [Example 172, 2-(6-((4-(1-ethyl-3-(pyridin-3-yl)-1H-pyrazol-4-yl)pyrimidin-2-yl)amino)-3,4-dihydroisoquinolin-2(1H)-yl)acetic acid], in assay [2] (setting [5]), the IC50 came to 0.0383 µM.

As for `CCn1cc(-c2ccnc(Nc3ccc(N4CCN(CC(=O)O)CC4)cc3)n2)c(-c2cccnc2)n1` [Example 173, 2-(4-(4-((4-(1-Ethyl-3-(pyridin-3-yl)-1H-pyrazol-4-yl)pyrimidin-2-yl)amino)phenyl)piperazin-1-yl)acetic acid], the concentration for half-maximal inhibition (IC50) in assay [2] (setting [5]) was found to be 0.0476 µM.

Regarding `CCn1cc(-c2ccnc(Nc3ccc(N4CCN(C(=O)CO)CC4)cc3)n2)c(-c2cccnc2)n1` [Example 174, 1-(4-(4-((4-(1-ethyl-3-(pyridin-3-yl)-1H-pyrazol-4-yl)pyrimidin-2-yl)amino)phenyl)piperazin-1-yl)-2-hydroxyethan-1-one], the IC50 in assay [2] (setting [5]) stood at 0.037 µM.

Regarding `CCn1cc(-c2ccnc(Nc3ccc(N4CCC(N)(CC)CC4)cc3)n2)c(-c2cccnc2)n1` [Example 177, N-(4-(4-Amino-4-ethylpiperidin-1-yl)phenyl)-4-(1-ethyl-3-(pyridin-3-yl)-1H-pyrazol-4-yl)pyrimidin-2-amine], the results for the IC50 in assay [1] and in assay [2] (setting [5]) were 0.0035 µM and 0.0085 µM, respectively. In the case of `CCn1cc(-c2ccnc(Nc3ccc(N4CCC(C(C)(C)N)CC4)cc3)n2)c(-c2cccnc2)n1` [Example 178], in assay [2] (setting [5]), the IC50 is 0.0148 µM. The same measure, in the same setting: then `CCn1cc(-c2ccnc(Nc3ccc(-n4cnc(N5CCN(C)CC5)n4)cc3)n2)c(-c2cccnc2)n1` [Example 180, 4-(1-ethyl-3-(pyridin-3-yl)-1H-pyrazol-4-yl)-N-(4-(3-(4-methylpiperazin-1-yl)-1H-1,2,4-triazol-1-yl)phenyl)pyrimidin-2-amine], with 0.0091 µM.
